Measured values as given in patent US20250195513A1, “DEGRADATION OF IRAK4 BY CONJUGATION OF IRAK4 INHIBITORS WITH E3 LIGASE LIGAND AND METHODS OF USE” (BeiGene, Ltd., priority 2022, published 2025).

What was measured:
Assay type in all cases: cell-based
[1] = molecular target: T1, IRAK4 (Homo sapiens, UniProt Q9NWZ3); assay: IRAK4 Degradation Assay (Karpas299, HTRF/TR-FRET); settings: Karpas-299 cells; for Dmax: maximum percentage of degradation
T1 construct: endogenous in cells; host or cells: Karpas299
T1 sequence (Q9NWZ3 1-460): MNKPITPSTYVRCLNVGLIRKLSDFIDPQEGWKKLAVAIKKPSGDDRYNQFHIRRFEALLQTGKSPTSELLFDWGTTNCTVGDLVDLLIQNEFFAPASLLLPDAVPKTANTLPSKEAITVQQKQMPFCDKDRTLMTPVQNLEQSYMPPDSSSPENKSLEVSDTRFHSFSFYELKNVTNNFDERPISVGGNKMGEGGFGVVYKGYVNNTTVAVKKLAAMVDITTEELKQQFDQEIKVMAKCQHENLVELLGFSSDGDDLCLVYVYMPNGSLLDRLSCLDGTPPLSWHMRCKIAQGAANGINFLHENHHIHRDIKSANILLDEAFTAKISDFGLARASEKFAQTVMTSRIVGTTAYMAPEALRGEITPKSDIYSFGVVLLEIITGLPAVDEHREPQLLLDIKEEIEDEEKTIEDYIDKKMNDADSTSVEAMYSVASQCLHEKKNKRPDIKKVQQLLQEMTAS
In short: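 Compound potency as DC50 (IC50) came from four-parameter fits of percent IRAK4 degradation. IRAK4 was measured by HTRF (665/620 nm) in lysates of Karpas299 cells seeded at 0.2 million per well. Cells had been treated with compound dilutions for 5 or 24 h.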

[2] = system: TNF-α production in THP-1 cells; assay: TNF-α Production Assay in THP-1 Cells (LPS stimulated); settings: Homo sapiens, THP-1, 24 h; for Emax: maximum inhibition, read-out: TNF-α (THP-1) 24 h IMax
Method: THP-1 cells maintained in RPMI 1640 medium (Thermo Scientific) supplemented with 10% FBS (Thermo Scientific), 100 units/mL penicillin and 0.1 mg/mL streptomycin (Thermo Scientific) were seeded into 96-well plates at the density of 0.2 million cells per well and then treated with compounds for 24 h. Lipopolysaccharide was subsequently added at the final concentration of 1 μg/mL for 24 h. Culture supernatant was collected for measurement of TNF-α concentration by a TR-FRET-based method (Degorce, François, et al. Current chemical genomics. 2009, 3: 22) as described by the manufacturer manual (Cisbio). FRET signals were measured using a PHERAstar FSX reader (BMG Labtech).

[3] = molecular target: T1, IRAK4; assay: IRAK4 Degradation Assay with Human Serum (Karpas299, HTRF/TR-FRET); settings: Karpas-299 in human serum, 24 hrs treatment; for DC50: read-out: IRAK4 degradtion with human serum assay DC50; for Dmax: read-out: IRAK4 degradtion with human serum assay Dmax (%)
In short: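 Remaining IRAK4 measured by TR-FRET immunoassay on lysates of Karpas299 cells exposed 24 h to compound dilution series in human serum AB. DC50 derived from a Hill-slope fit of % degradation versus concentration.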

[4] = 5 h treatment, read-out: IRAK4 in Karpas-299 (5 h) Dmax (%)
[5] = 5 h treatment, read-out: IRAK4 in Karpas-299 (5 h) DC50
[6] = 24 h treatment, read-out: IRAK4 in Karpas-299 (24 h) Dmax (%)
[7] = 24 h treatment, read-out: IRAK4 in Karpas-299 (24 h) DC50

COc1cc2nn([C@H]3CC[C@H](N4CCN(C(=O)C5CN(c6cc(F)c(N7CCC(=O)NC7=O)c(F)c6)C5)CC4)CC3)cc2cc1NC(=O)c1cccc(C(F)(F)F)n1 [Example 176, N-(2-((1r,4r)-4-(4-(1-(4-(2,4-dioxotetrahydropyrimidin-1(2H)-yl)-3,5-difluorophenyl)azetidine-3-carbonyl)piperazin-1-yl)cyclohexyl)-6-methoxy-2H-indazol-5-yl)-6-(trifluoromethyl)picolinamide]
Dmax [1, 4]: 96% | DC50 [1, 5]: 12 nM | Dmax [1, 6]: 97% | DC50 [1, 7]: 1.6 nM | IC50 [2]: 120 nM | Emax [2]: 78%

COC[C@@H]1CN([C@H]2CC[C@H](n3cc4cc(NC(=O)c5ccc6cc(C#N)cnn56)c(C(C)(C)O)cc4n3)CC2)CCN1C1CCN(c2cc(F)c([C@H]3CCC(=O)NC3=O)c(F)c2)CC1 [Example 319]
Dmax [1, 4]: 95% | DC50 [1, 5]: 1.2 nM | Dmax [1, 6]: 98% | DC50 [1, 7]: 2 nM | IC50 [2]: 39 nM | Emax [2]: 90% | DC50 [3]: 6.7 nM | Dmax [3]: 98%

COc1cc2nn([C@H]3CC[C@H](CN4CCN(C(=O)[C@@H]5CCN(c6ccc(N7CCC(=O)NC7=O)cc6)C5)CC4)CC3)cc2cc1NC(=O)c1cccn(C2CC2)c1=O [Example 33, 1-cyclopropyl-N-(2-((1R,4r)-4-((4-((R)-1-(4-(2,4-dioxotetrahydropyrimidin-1(2H)-yl)phenyl)pyrrolidine-3-carbonyl)piperazin-1-yl)methyl)cyclohexyl)-6-methoxy-2H-indazol-5-yl)-2-oxo-1,2-dihydropyridine-3-carboxamide]
Dmax [1, 4]: 81% | DC50 [1, 5]: 33 nM | Dmax [1, 6]: 99% | DC50 [1, 7]: 3.1 nM | IC50 [2]: 101 nM | Emax [2]: 53%

CC(C)(O)c1cc2nn(C3CCN([C@H]4CCN(CCc5cc(F)c([C@H]6CCC(=O)NC6=O)c(F)c5)CC4(F)F)CC3)cc2cc1NC(=O)c1ccc2cc(C#N)cnn12 [Example 339, 3-cyano-N-(2-((S)-1′-(4-((R)-2,6-dioxopiperidin-3-yl)-3,5-difluorophenethyl)-3′,3′-difluoro-[1,4′-bipiperidin]-4-yl)-6-(2-hydroxypropan-2-yl)-2H-indazol-5-yl)pyrrolo[1,2-b]pyridazine-7-carboxamide]
Dmax [1, 6]: 95% | DC50 [1, 7]: 2.5 nM | IC50 [2]: 122 nM | Emax [2]: 67% | DC50 [3]: 20 nM | Dmax [3]: 99%

CC(C)(O)c1cc2nn([C@H]3CC[C@H](N4CCN(C5CCN(c6ccc(C7CCC(=O)NC7=O)cc6)CC5)CC4)CC3)cc2cc1NC(=O)c1ccc2cc(C#N)cnn12 (stereo partly shown) [Example 195, 3-cyano-N-(2-((1r,4r)-4-(4-(1-(4-(2,6-dioxopiperidin-3-yl)phenyl)piperidin-4-yl)piperazin-1-yl)cyclohexyl)-6-(2-hydroxypropan-2-yl)-2H-indazol-5-yl)pyrrolo[1,2-b]pyridazine-7-carboxamide]
Dmax [1, 4]: 97% | DC50 [1, 5]: 13 nM | Dmax [1, 6]: 98% | DC50 [1, 7]: 2.8 nM | IC50 [2]: 118 nM | Emax [2]: 72% | DC50 [3]: 10 nM | Dmax [3]: 98%

C[C@H]1CN([C@H]2CC[C@H](n3cc4cc(NC(=O)c5ccc6cc(C#N)cnn56)c(C(C)(C)O)cc4n3)CC2)CCN1C(=O)C1CN(c2cc(F)c([C@H]3CCC(=O)NC3=O)c(F)c2)C1 [Example 311, 3-cyano-N-(2-((1S,4r)-4-((S)-4-(1-(4-((R)-2,6-dioxopiperidin-3-yl)-3,5-difluorophenyl)azetidine-3-carbonyl)-3-methylpiperazin-1-yl)cyclohexyl)-6-(2-hydroxypropan-2-yl)-2H-indazol-5-yl)pyrrolo[1,2-b]pyridazine-7-carboxamide]
Dmax [1, 6]: 98% | DC50 [1, 7]: 0.8 nM | IC50 [2]: 29 nM | Emax [2]: 91% | DC50 [3]: 15 nM | Dmax [3]: 99%

COC[C@H]1CN([C@H]2CC[C@H](n3cc4cc(NC(=O)c5ccc6cc(C#N)cnn56)c(C(C)(C)O)cc4n3)CC2)CCN1C(=O)C1CN(c2cc(F)c(N3CCC(=O)NC3=O)c(F)c2)C1 [Example 315, 3-cyano-N-(2-((1R,4r)-4-((R)-4-(1-(4-(2,4-dioxotetrahydropyrimidin-1(2H)-yl)-3,5-difluorophenyl)azetidine-3-carbonyl)-3-(methoxymethyl)piperazin-1-yl)cyclohexyl)-6-(2-hydroxypropan-2-yl)-2H-indazol-5-yl)pyrrolo[1,2-b]pyridazine-7-carboxamide]
Dmax [1, 4]: 97% | DC50 [1, 5]: 0.9 nM | Dmax [1, 6]: 95% | DC50 [1, 7]: 0.6 nM | IC50 [2]: 22 nM | Emax [2]: 93% | DC50 [3]: 18 nM | Dmax [3]: 99%

COc1cc(N2CC(C(=O)N3CCN([C@H]4CC[C@H](n5cc6cc(NC(=O)c7ccc8cc(C#N)cnn78)c(C(C)(C)O)cc6n5)CC4)CC3)C2)ccc1[C@H]1CCC(=O)NC1=O [Example 259]
Dmax [1, 6]: 98% | DC50 [1, 7]: 0.8 nM | IC50 [2]: 19 nM | Emax [2]: 90% | DC50 [3]: 6.3 nM | Dmax [3]: 101%

CC(C)(O)c1cc2nn([C@H]3CC[C@H](N4CCN(C(=O)C5CN(c6cc(F)c(N7CCC(=O)NC7=O)c(F)c6)C5)CC4)CC3)cc2cc1NC(=O)c1cccc(C(F)(F)F)n1 [Example 114, N-(2-((1r,4r)-4-(4-(1-(4-(2,4-dioxotetrahydropyrimidin-1(2H)-yl)-3,5-difluorophenyl)azetidine-3-carbonyl)piperazin-1-yl)cyclohexyl)-6-(2-hydroxypropan-2-yl)-2H-indazol-5-yl)-6-(trifluoromethyl)picolinamide]
Dmax [1, 6]: 96% | DC50 [1, 7]: 1.3 nM | IC50 [2]: 53 nM | Emax [2]: 78%

C[C@H]1CN(C(=O)C2CN(c3cc(F)c([C@H]4CCC(=O)NC4=O)c(F)c3)C2)CCN1[C@H]1CC[C@H](n2cc3cc(NC(=O)c4ccc5cc(C#N)cnn45)c(C(C)(C)O)cc3n2)CC1 [Example 304, 3-cyano-N-(2-((1S,4r)-4-((S)-4-(1-(4-((R)-2,6-dioxopiperidin-3-yl)-3,5-difluorophenyl)azetidine-3-carbonyl)-2-methylpiperazin-1-yl)cyclohexyl)-6-(2-hydroxypropan-2-yl)-2H-indazol-5-yl)pyrrolo[1,2-b]pyridazine-7-carboxamide]
Dmax [1, 6]: 96% | DC50 [1, 7]: 0.5 nM | IC50 [2]: 31 nM | Emax [2]: 88% | DC50 [3]: 65 nM | Dmax [3]: 97%

[2H]C([2H])([2H])Oc1cc2nn([C@H]3CC[C@H](N4CCN(C(=O)C5CN(c6cc(F)c(N7CCC(=O)NC7=O)c(F)c6)C5)CC4)CC3)cc2cc1NC(=O)c1cccc(C(F)(F)F)n1 [Example 173, N-(2-((1r,4r)-4-(4-(1-(4-(2,4-dioxotetrahydropyrimidin-1(2H)-yl)-3,5-difluorophenyl)azetidine-3-carbonyl)piperazin-1-yl)cyclohexyl)-6-(methoxy-d3)-2H-indazol-5-yl)-6-(trifluoromethyl)picolinamide]
Dmax [1, 4]: 99% | DC50 [1, 5]: 17 nM | Dmax [1, 6]: 98% | DC50 [1, 7]: 1.8 nM | IC50 [2]: 69 nM | Emax [2]: 79%
